Results on 28 molecules are retold here after patent US9328099B2, “Cyanomethylpyrazole carboxamides as janus kinase inhibitors” (Merck Sharp & Dohme Corp., priority 2011, dated 2016).

Structures are written as SMILES. Where only a bound is given, the exact number is not on record here.

As usually defined, the IC50 is the midpoint of a concentration-inhibition curve.

One test addresses JAK1 (Homo sapiens (Human), UniProt P23458). As to the kind of experiment: Jak Biochemical HTRF Assay, JAK1. The settings on record: HTRF biochemical assay, GST-tagged catalytic domain; top concentration tested […]; read-out: JAK1 IC50. The source says:
(§1) Jak Biochemical HTRF Assay Protocol
(§2) Subsequent reagent additions employed an Agilent Bravo.
(TR-FRET usually uses a lanthanide donor and a delayed reading to cut background.)

In another test the target is JAK2 (Homo sapiens (Human), UniProt O60674). As to the kind of experiment: Jak Biochemical HTRF Assay, JAK2. The settings on record: HTRF biochemical assay, GST-tagged catalytic domain; top concentration tested […].
Sequence of JAK2 (O60674 849-1124): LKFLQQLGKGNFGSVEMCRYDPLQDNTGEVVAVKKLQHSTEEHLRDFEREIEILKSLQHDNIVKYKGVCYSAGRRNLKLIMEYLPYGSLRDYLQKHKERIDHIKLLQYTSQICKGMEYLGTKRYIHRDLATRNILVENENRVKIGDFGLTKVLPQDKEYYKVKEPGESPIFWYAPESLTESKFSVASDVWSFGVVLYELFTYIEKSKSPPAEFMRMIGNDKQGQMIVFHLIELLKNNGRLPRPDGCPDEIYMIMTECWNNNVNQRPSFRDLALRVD
Description: as §1, §2

Sequence of JAK1 (P23458 875-1153): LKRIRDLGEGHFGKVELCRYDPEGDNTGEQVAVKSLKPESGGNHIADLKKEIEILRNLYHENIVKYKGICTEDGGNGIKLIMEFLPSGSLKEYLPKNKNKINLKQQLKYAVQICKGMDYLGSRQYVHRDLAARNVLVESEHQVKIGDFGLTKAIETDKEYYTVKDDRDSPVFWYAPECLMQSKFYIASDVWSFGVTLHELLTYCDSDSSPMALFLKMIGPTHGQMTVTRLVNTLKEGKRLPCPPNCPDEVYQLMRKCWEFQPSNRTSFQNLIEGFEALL

Regarding `COc1cc(N2CCC(CC#N)(n3cc(C(N)=O)c(Nc4ccc(F)cc4)n3)CC2)ccn1` [Example 3-6, 1-[4-(cyanomethyl)-1-(2-methoxypyridin-4-yl)piperidin-4-yl]-3-[(4-fluorophenyl)amino]-1H-pyrazole-4-carboxamide], the IC50 came to 0.2 nM on JAK1 and 5 nM against JAK2.

For the molecule `N#CCC1(n2cc(C(N)=O)c(Nc3ccc(F)cc3)n2)CCN(c2cncc(C(F)(F)F)c2)CC1` [Example 3-8, 1-{4-(cyanomethyl)-1-[5-(trifluoromethyl)pyridin-3-yl]piperidin-4-yl}-3-[(4-fluorophenyl)amino]-1H-pyrazole-4-carboxamide], the IC50 at JAK1 stood at 1 nM; on JAK2, 54 nM.

On to `N#CCC1(n2cc(C(N)=O)c(Nc3ccc(F)cc3)n2)CCN(c2ccc(C(O)C(F)(F)F)cc2)CC1` (centres unmarked) [Example 3-9, 1-{4-(cyanomethyl)-1-[4-(2,2,2-trifluoro-1-hydroxyethyl)phenyl]piperidin-4-yl}-3-[(4-fluorophenyl)amino]-1H-pyrazole-4-carboxamide], for which the IC50 came out at 1 nM at JAK1 and 37 nM against JAK2.

On to `N#CCC1(n2cc(C(N)=O)c(Nc3ccc(F)cc3)n2)CCN(c2cccc(OCCO)n2)CC1` [Example 3-10, 1-{4-(cyanomethyl)-1-[6-(2-hydroxyethoxy)pyridin-2-yl]piperidin-4-yl}-3-[(4-fluorophenyl)amino]-1H-pyrazole-4-carboxamide], for which the IC50 is 3 nM on JAK1 and 47 nM on JAK2.

For the molecule `COc1cc(N2CCC(CC#N)(n3cc(C(N)=O)c(Nc4ccc(F)cc4)n3)CC2)ccc1F` [Example 3-11, 1-[4-(cyanomethyl)-1-(4-fluoro-3-methoxyphenyl)piperidin-4-yl]-3-[(4-fluorophenyl)amino]-1H-pyrazole-4-carboxamide], the values for the 50% inhibitory concentration (IC50) on JAK1 and against JAK2 were 4 nM and 74 nM, respectively.

With `COc1cc(F)cc(N2CCC(CC#N)(n3cc(C(N)=O)c(Nc4ccc(F)cc4)n3)CC2)c1` [Example 3-12, 1-[4-(cyanomethyl)-1-(3-fluoro-5-methoxyphenyl)piperidin-4-yl]-3-[(4-fluorophenyl)amino]-1H-pyrazole-4-carboxamide], the IC50 at JAK1 stood at 2 nM; against JAK2, 40 nM.

Turning to `N#CCC1(n2cc(C(N)=O)c(Nc3ccc(F)cc3)n2)CCN(c2ccc(OC(F)F)nc2)CC1` [Example 3-13, 1-{4-(cyanomethyl)-1-[6-(difluoromethoxy)pyridin-3-yl]piperidin-4-yl}-3-[(4-fluorophenyl)amino]-1H-pyrazole-4-carboxamide], the IC50 came to 0.7 nM on JAK1 and 21 nM against JAK2.

On to `Cc1cc(N2CCC(CC#N)(n3cc(C(N)=O)c(Nc4ccc(F)cc4)n3)CC2)cnc1C` [Example 3-14, 1-[4-(cyanomethyl)-1-(5,6-dimethylpyridin-3-yl)piperidin-4-yl]-3-[(4-fluorophenyl)amino]-1H-pyrazole-4-carboxamide], for which the half-inhibitory concentration (IC50) on JAK1 came out at 2 nM; on JAK2, 49 nM.

Turning to `CC(C)Oc1cccc(N2CCC(CC#N)(n3cc(C(N)=O)c(Nc4ccc(F)cc4)n3)CC2)n1` [Example 3-15, 1-{4-(cyanomethyl)-1-[6-(1-methylethoxy)pyridin-2-yl]piperidin-4-yl}-3-[(4-fluorophenyl)amino]-1H-pyrazole-4-carboxamide], the concentration for half-maximal inhibition (IC50) on JAK1 was 191 nM; at JAK2, greater than 1500 nM.

In the case of `CCOc1cccc(N2CCC(CC#N)(n3cc(C(N)=O)c(Nc4ccc(F)cc4)n3)CC2)n1` [Example 3-16, 1-[4-(cyanomethyl)-1-(6-ethoxypyridin-2-yl)piperidin-4-yl]-3-[(4-fluorophenyl)amino]-1H-pyrazole-4-carboxamide], the results for the 50% inhibitory concentration (IC50) at JAK1 and against JAK2 were 45 nM and 861 nM, respectively.

As to `N#CCC1(n2cc(C(N)=O)c(Nc3ccc(F)cc3)n2)CCN(c2cccc(C3CC3)c2)CC1` [Example 3-17, 1-[4-(cyanomethyl)-1-(3-cyclopropylphenyl)piperidin-4-yl]-3-[(4-fluorophenyl)amino]-1H-pyrazole-4-carboxamide], the values for the IC50 on JAK1 and against JAK2 were 32 nM and 780 nM, respectively.

`N#CCC1(n2cc(C(N)=O)c(Nc3ccc(F)cc3)n2)CCN(c2cccc(C#N)n2)CC1` [Example 3-18, 1-[4-(cyanomethyl)-1-(6-cyanopyridin-2-yl)piperidin-4-yl]-3-[(4-fluorophenyl)amino]-1H-pyrazole-4-carboxamide]: the IC50 at JAK1 came to 3 nM; against JAK2, 89 nM.

Turning to `N#CCC1(n2cc(C(N)=O)c(Nc3ccc(F)cc3)n2)CCN(c2ccc(OC(F)F)cn2)CC1` [Example 3-19, 1-{4-(cyanomethyl)-1-[5-(difluoromethoxy)pyridin-2-yl]piperidin-4-yl}-3-[(4-fluorophenyl)amino]-1H-pyrazole-4-carboxamide], the half-maximal inhibitory concentration (IC50) at JAK1 was determined as 0.6 nM; against JAK2 it was 18 nM.

Take `N#CCC1(n2cc(C(N)=O)c(Nc3ccc(F)cc3)n2)CCN(c2cncc(C#N)c2)CC1` [Example 3-21, 1-[4-(cyanomethyl)-1-(5-cyanopyridin-3-yl)piperidin-4-yl]-3-[(4-fluorophenyl)amino]-1H-pyrazole-4-carboxamide]: the IC50 on JAK1 came out at 0.6 nM; at JAK2, 20 nM.

Regarding `COc1cccnc1N1CCC(CC#N)(n2cc(C(N)=O)c(Nc3ccc(F)cc3)n2)CC1` [Example 3-23, 1-[4-(cyanomethyl)-1-(3-methoxypyridin-2-yl)piperidin-4-yl]-3-[(4-fluorophenyl)amino]-1H-pyrazole-4-carboxamide], the IC50 at JAK1 was 33 nM; at JAK2, 559 nM.

Take `COc1ncc(N2CCC(CC#N)(n3cc(C(N)=O)c(Nc4ccc(F)cc4)n3)CC2)cn1` [Example 3-25, 1-[4-(cyanomethyl)-1-(2-methoxypyrimidin-5-yl)piperidin-4-yl]-3-[(4-fluorophenyl)amino]-1H-pyrazole-4-carboxamide]: the IC50 at JAK1 was 0.7 nM; on JAK2 it was 21 nM.

On to `N#CCC1(n2cc(C(N)=O)c(Nc3ccc(F)cc3)n2)CCN(c2ccc(C#N)cc2)CC1` [Example 3-26, 1-[4-(cyanomethyl)-1-(4-cyanophenyl)piperidin-4-yl]-3-[(4-fluorophenyl)amino]-1H-pyrazole-4-carboxamide], for which the IC50 on JAK1 was 0.2 nM; at JAK2 it was 3 nM.

Regarding `N#CCC1(n2cc(C(N)=O)c(Nc3ccc(F)cc3)n2)CCN(c2ccc(C(F)(F)F)nc2)CC1` [Example 3-28, 1-{4-(cyanomethyl)-1-[6-(trifluoromethyl)pyridin-3-yl]piperidin-4-yl}-3-[(4-fluorophenyl)amino]-1H-pyrazole-4-carboxamide], the values for the IC50 at JAK1 and against JAK2 were 0.6 nM and 26 nM, respectively.

Regarding `Cc1ncccc1N1CCC(CC#N)(n2cc(C(N)=O)c(Nc3ccc(F)cc3)n2)CC1` [Example 3-29, 1-[4-(cyanomethyl)-1-(2-methylpyridin-3-yl)piperidin-4-yl]-3-[(4-fluorophenyl)amino]-1H-pyrazole-4-carboxamide], the IC50 on JAK1 was found to be 9 nM; against JAK2, 209 nM.

Take `N#CCC1(n2cc(C(N)=O)c(Nc3ccc(F)cc3)n2)CCN(c2cccnc2)CC1` [Example 3-30, 1-[4-(cyanomethyl)-1-pyridin-3-ylpiperidin-4-yl]-3-[(4-fluorophenyl)amino]-1H-pyrazole-4-carboxamide]: the IC50 came out at 0.3 nM on JAK1 and 6 nM on JAK2.

On to `Cc1ccnc(N2CCC(CC#N)(n3cc(C(N)=O)c(Nc4ccc(F)cc4)n3)CC2)c1` [Example 3-31, 1-[4-(cyanomethyl)-1-(4-methylpyridin-2-yl)piperidin-4-yl]-3-[(4-fluorophenyl)amino]-1H-pyrazole-4-carboxamide], for which the results for the IC50 on JAK1 and at JAK2 were 1 nM and 44 nM, respectively.

For `Cc1ccc(F)cc1N1CCC(CC#N)(n2cc(C(N)=O)c(Nc3ccc(F)cc3)n2)CC1` [Example 3-32, 1-[4-(cyanomethyl)-1-(5-fluoro-2-methylphenyl)piperidin-4-yl]-3-[(4-fluorophenyl)amino]-1H-pyrazole-4-carboxamide], the IC50 at JAK1 is 204 nM; at JAK2, greater than 1500 nM.

In the case of `Cc1ccncc1N1CCC(CC#N)(n2cc(C(N)=O)c(Nc3ccc(F)cc3)n2)CC1` [Example 3-33, 1-[4-(cyanomethyl)-1-(4-methylpyridin-3-yl)piperidin-4-yl]-3-[(4-fluorophenyl)amino]-1H-pyrazole-4-carboxamide], the IC50 on JAK1 came out at 7 nM; against JAK2, 102 nM.

Regarding `Cc1ccc(N2CCC(CC#N)(n3cc(C(N)=O)c(Nc4ccc(F)cc4)n3)CC2)cc1F` [Example 3-34, 1-[4-(cyanomethyl)-1-(3-fluoro-4-methylphenyl)piperidin-4-yl]-3-[(4-fluorophenyl)amino]-1H-pyrazole-4-carboxamide], the IC50 amounted to 5 nM at JAK1 and 215 nM against JAK2.

Turning to `COC(=O)c1cccc(N2CCC(CC#N)(n3cc(C(N)=O)c(Nc4ccc(F)cc4)n3)CC2)n1` [Example 3-35, methyl 6-[4-{4-carbamoyl-3-[(4-fluorophenyl)amino]-1H-pyrazol-1-yl}-4-(cyanomethyl)piperidin-1-yl]pyridine-2-carboxylate], the IC50 on JAK1 was found to be 19 nM; against JAK2 it was 280 nM.

With `CCOc1ccc(N2CCC(CC#N)(n3cc(C(N)=O)c(Nc4ccc(F)cc4)n3)CC2)cn1` [Example 3-36, 1-[4-(cyanomethyl)-1-(6-ethoxypyridin-3-yl)piperidin-4-yl]-3-[(4-fluorophenyl)amino]-1H-pyrazole-4-carboxamide], the figures for the IC50 on JAK1 and on JAK2 were 3 nM and 46 nM, respectively.

For `COc1cncc(N2CCC(CC#N)(n3cc(C(N)=O)c(Nc4ccc(F)cc4)n3)CC2)c1` [Example 3-37, 1-[4-(cyanomethyl)-1-(5-methoxypyridin-3-yl)piperidin-4-yl]-3-[(4-fluorophenyl)amino]-1H-pyrazole-4-carboxamide], the IC50 on JAK1 amounted to 0.6 nM; on JAK2, 17 nM.

As to `N#CCC1(n2cc(C(N)=O)c(Nc3ccc(F)cc3)n2)CCN(c2ccc(F)cc2)CC1` [Example 3-38, 1-[4-(cyanomethyl)-1-(4-fluorophenyl)piperidin-4-yl]-3-[(4-fluorophenyl)amino]-1H-pyrazole-4-carboxamide], the IC50 on JAK1 came to 2 nM; against JAK2 it was 37 nM.
